Laboratory results: PMC6131539, “Behavioral Effects of a Potential Novel TAAR1 Antagonist” (Frontiers in Pharmacology, 2018)

What was measured:
C57BL/6J mice = experiment: Stereotypic counts, co-injection with cocaine, C57BL/6J mice; assay type: in vivo; conditions: 5 and 25 mg/kg co-injected with cocaine 10 mg/kg; sum over 60 min
TAAR1-KO mice = experiment: Stereotypic counts, co-injection with cocaine, TAAR1-KO mice; assay type: in vivo; conditions: 5, 15 and 25 mg/kg co-injected with cocaine 10 mg/kg
Description: (§1) Experimentally naïve mice, of at least 12 weeks of age, were used for all behavioral experiments. The mice were randomly assigned to treatment or control groups, balanced by sex and weight. Locomotor activity was assessed using the automated locomotor analysis monitors (Omnitech Electronics, Columbus, OH, United States). The apparatus included four open field monitors. Each Open Field monitor consisted of sets of 16 light beams arrayed in the horizontal X and Y axes. The hardware detected beams broken by the animal, which allowed the software to determine the location of the mouse in the cage. Total distance covered by mice was used to characterize locomotor activity of the animals. The monitors were divided into four compartments (20 cm × 20 cm). Animals were tested individually for defined periods with 5-min intervals. The mice were first weighed and then placed into the apparatus, allowing for 30 min habituation. […] The locomotor activity was then measured for additional 1 h. […]
(§2) Supplementary file Image_2.TIF: FIGURE S2 In vivo studies with TAAR1-KO mice and compound 22 on stereotypic counts activity. […] The sum of stereotypic counts was assessed over 60 min after the injection of amphetamine and compound 22 in WT (solid bars) or TAAR1-KO mice (spotted bars). […] The sum of stereotypic counts was assessed over 60 min following the injection in WT (solid bars) or TAAR1-KO mice (dotted bars). […]

PBR = experiment: PDSP binding, primary screen; set-up: species or system human; conditions: 10 μM
Description: (§3) This was achieved through the identification of potential pharmacological targets of compound 22 using the Psychoactive Drug Screening Program (PDSP) at University of North Carolina-Chapel-Hill. PDSP provides a platform for screening novel psychoactive compounds on human proteins expressed in the central nervous system in order to identify their biological target(s) ([Besnard et al., 2012]). Binding studies were done on 47 targets at a single dose of compound 22 (10 μM; Supplementary Table S1). This primary screen yielded a total of 5 hits for compound 22 (Table 2). These hits were the serotonin, dopamine, and norepinephrine transporters, as well as the sigma 1 and sigma 2 receptors.
(§4) Supplemental Table 1. Compound 22 binding studies from PDSP: primary screen for compound 22 and subsequent hits (50% cut-off, hits highlighted in red). The primary screen was performed by PDSP as described previously (Besnard et al., 2012).

AMPA = experiment: PDSP binding, primary screen; set-up: species or system human; conditions: 10 μM
Description: as §3, §4

GABAA = experiment: PDSP binding, primary screen; set-up: species or system human; conditions: 10 μM
Description: as §3, §4

NMDA = experiment: PDSP binding, primary screen; set-up: species or system human; conditions: 10 μM
Description: as §3, §4

BZP site = experiment: PDSP binding, primary screen; set-up: species or system human; conditions: 10 μM
Description: as §3, §4

Sigma 2 = experiment: PDSP binding, primary screen; set-up: species or system human; conditions: 10 μM
Description: as §3, §4

[1] = tested on: WT littermates (C57BL/6J x 129S2/Sv); experiment: Stereotypic counts, co-injection with amphetamine, WT littermates; assay type: in vivo, mice; conditions: any dose (2.5, 5, 15 mg/kg) co-injected with amphetamine 2 mg/kg
Description: as §1, §2

VTA dopamine neurons = experiment: Electrophysiology: spontaneous firing of VTA dopamine neurons in slices; assay type: cell-based, C57Bl/6J mice; conditions: 100 μM, bath applied 5 min; percentage of baseline
Description: All electrophysiological recordings were performed in slice preparations from C57Bl/6J mice (P21-P30). Briefly, mice were anaesthetized with isoflurane and transcardially perfused with an ice-cold sucrose solution containing (in mM): 50 sucrose, 26.2 NaHCO3, 1.25 glucose, 4.9 MgCl2, 3 kynurenic acid, 0.1 CaCl2, and 1.32 ascorbic acid in bicarbonate-buffered solution (aCSF, described below). Mice were then decapitated and brains were extracted. […] Cells were visualized on an upright microscope using “Dodt-type” gradient contrast infrared optics ([Dodt et al., 2002]) and whole-cell recordings were made using a MultiClamp 700B amplifier (Axon Instruments, Union City, CA, United States). Recording electrodes (3–5 MΩ) were filled with (in mM): 136 potassium-D-gluconate, 4 MgCl2, 1.1 HEPES, 5, EGTA, 10 sodium creatine phosphate, 3.4 Mg-ATP, and 0.1 Na2GTP. […] Spontaneous firing activity was recorded in current-clamp mode. […] Firing data for all neurons was analyzed with the MiniAnalysis program (Synaptosoft) using the same criteria. Drug-induced changes in firing are expressed as a percentage of baseline. Drug effects were calculated by comparing the response during the baseline/pre-drug period to the response 5 min after onset of drug administration. […] We therefore assessed the effects of compound 22 on firing rate of dopamine neurons. […]

## Clc1ccc(CNCc2ccc(Cn3cncn3)cc2)c(Cl)c1 [compound 22]
C57BL/6J mice
  stereotypic counts: increase in stereotypic counts
TAAR1-KO mice
  stereotypic counts: significant increases in stereotypic counts
PBR
  % Inhibition: 23.1%
AMPA
  % Inhibition: 13.4%
GABAA
  % Inhibition: 5.2%
NMDA
  % Inhibition: -1.7%
BZP site
  % Inhibition: 1.1%
Sigma 2
  % Inhibition: 78.4%
[1]
  stereotypic counts: did not have statistically enhanced stereotypic counts
VTA dopamine neurons
  increase in firing rate of dopaminergic neurons from VTA: 88%
